In patent US20210022305A1, “A HUMULUS PLANT VARIANT AND EXTRACTS THEREOF” (BOMI LLC, priority 2018, published 2021):

Tested on: VIC cells
Assay: VIC calcification reduction (Alizarin Red S nodule number and area)
Type: cell-based, porcine
Method: VIC Isolation and Culture. VICs were isolated from porcine aortic valve leaflets (Hormel, Austin, Minn.) by collagenase digestion and subsequently cultured in growth medium (15% FBS, 2 mM L-glutamine, 100 U/ml penicillin, and 100 µg/ml streptomycin in medium 199) at 37° C., 5% CO2 for two to four passages. VICs used in all experiments were seeded at a density of 50,000 cells/cm^2 onto 24-well or 96-well plates. During the experiments, the VICs were cultured in low-serum medium (1% FBS, 100 U/ml penicillin, 100 µg/ml streptomycin, 2 mM L-glutamine, in medium 199), and the medium was changed each day until the fifth day.
Culture Substrate Coatings. Tissue culture polystyrene (TCPS) plates (24-well or 96-well) were coated with type I collagen (Coll) (Inamed Biomaterials, Fremont, Calif.; […]), fibronectin (FN, 5 g/cm^2), fibrin (FB, […]), or left untreated (TCPS). For the FB coating, plates were first incubated overnight at 4° C. in fibrinogen (1 mg/mL), followed by three washes with 0.05% Tween 20 in phosphate-buffered saline (PBS) and 1 hour incubation with thrombin (0.6 mg/ml) at 37° C. (Gu et al., “Role of the MAPK/ERK Pathway in Valvular Interstitial Cell Calcification,” American Journal of Physiology—Heart and Circulatory Physiology 296(6):H1748-H1757 (2009), which is hereby incorporated by reference in its entirety). All coatings were prepared in 50 mM bicarbonate coating buffer, pH 8.5, and rinsed three times with PBS before cell seeding. The amounts of adsorbed proteins were measured on separate plates using the bicinchoninic acid protein assay (Pierce, Rockford, Ill.) to verify adsorption of protein coatings.
Quantification of Nodule Number and Size. After 5 days of culture in the presence or absence of U-0126 or PD-98059, VIC cultures were stained with Alizarin Red S (ARS) to facilitate quantification of calcified nodules, as ARS stains mineralized deposits red. Cultures were fixed with 10% neutral buffered formalin, stored at 4° C. overnight, and stained with a 2% solution of ARS in PBS. Positively stained nodules were manually counted under a microscope (Olympus IX51 with Hamamatsu 285 digital camera and Simple PCI digital imaging software; Compix, Imaging Systems, Cranberry Township, Pa.). Nodule size was measured using ImageJ software (National Institutes of Health), and photomicrographs were captured under 40 and 100 magnifications.
Multiplate wells containing calcifying VICs from 27 different tissue samples were treated with CBD of 8 different bioactivities, and 5 different mg concentrations, or left untreated. Average calcification was computed using the number of nodules per well, and the average area per nodule. Average total nodule area for untreated wells was 3.27 mm^2 (SD=0.32, min=0.5, max=4.0) per well. All reported percent reductions in calcification were computed by dividing average nodule area of treated wells from 3.27 mm^2. CBD samples were clustered according to their bioactivity levels around the values, 0.20, 0.30, 0.50, 0.60, 0.70, 0.80, 0.90, and 0.95. Mg dosages of 5, 10, 25, 40, and 100 were examined.
Culture Substrate Coatings. Tissue culture polystyrene (TCPS) plates (24-well or 96-well) were coated with type I collagen (Coll) (Inamed Biomaterials, Fremont, Calif.; […]), fibronectin (FN, 5 g/cm^2), fibrin (FB, 1.5 g/cm^2), or left untreated (TCPS). For the FB coating, plates were first incubated overnight at 4° C. in fibrinogen (1 mg/mL), followed by three washes with 0.05% Tween 20 in phosphate-buffered saline (PBS) and 1 hour incubation with thrombin (0.6 mg/mL) at 37° C. All coatings were prepared in 50 mM bicarbonate coating buffer, pH 8.5, and rinsed three times with PBS before cell seeding. The amounts of adsorbed proteins were measured on separate plates using the bicinchoninic acid protein assay (Pierce, Rockford, Ill.) to verify adsorption of protein coatings. […]

[1] = Example 4, 5 mg, CBD = 0.95 bioactivity
[2] = Example 4, 10 mg, CBD = 0.95 bioactivity
[3] = Example 4, 25 mg, CBD = 0.95 bioactivity
[4] = Example 4, 40 mg, CBD = 0.95 bioactivity
[5] = Example 4, 100 mg, CBD = 0.95 bioactivity

C=C(C)C1CCC(C)=CC1c1c(O)cc(CCCCC)cc1O (stereo not drawn) [CBD, 2-(6-isopropenyl-3-methyl-2-cyclohexen-l-yl)-5-pentyl-1,3-benzenediol]
Calcification reduction, M (5 mg, bioactivity .20): 5.17% | Calcification reduction, Max (5 mg, bioactivity .20): 6.9% | Calcification reduction, Min (5 mg, bioactivity .20): 3.8% | Calcification reduction, M (5 mg, bioactivity .30): 6.16% | Calcification reduction, Max (5 mg, bioactivity .30): 7.3% | Calcification reduction, Min (5 mg, bioactivity .30): 5.2% | Calcification reduction, M (5 mg, bioactivity .50): 7.63% | Calcification reduction, Max (5 mg, bioactivity .50): 9.1% | Calcification reduction, Min (5 mg, bioactivity .50): 5.3% | Calcification reduction, M (5 mg, bioactivity .60): 7.99% | Calcification reduction, Max (5 mg, bioactivity .60): 10.4% | Calcification reduction, Min (5 mg, bioactivity .60): 6.2% | Calcification reduction, M (5 mg, bioactivity .70): 10.06% | Calcification reduction, Max (5 mg, bioactivity .70): 13.6% | Calcification reduction, Min (5 mg, bioactivity .70): 7.3% | Calcification reduction, M (5 mg, bioactivity .80): 14.32% | Calcification reduction, Max (5 mg, bioactivity .80): 16.6% | Calcification reduction, Min (5 mg, bioactivity .80): 11.3% | Calcification reduction, M (5 mg, bioactivity .90): 18.06% | Calcification reduction, Max (5 mg, bioactivity .90): 21% | Calcification reduction, Min (5 mg, bioactivity .90): 14.6% | Calcification reduction, M (5 mg, bioactivity .95): 19.42% | Calcification reduction, Max (5 mg, bioactivity .95): 22.1% | Calcification reduction, Min (5 mg, bioactivity .95): 15.4% | Calcification reduction, M (10 mg, bioactivity .20): 4.95% | Calcification reduction, Max (10 mg, bioactivity .20): 6.2% | Calcification reduction, Min (10 mg, bioactivity .20): 3.7% | Calcification reduction, M (10 mg, bioactivity .30): 6.24% | Calcification reduction, Max (10 mg, bioactivity .30): 7.5% | Calcification reduction, Min (10 mg, bioactivity .30): 4.9% | Calcification reduction, M (10 mg, bioactivity .50): 9.77% | Calcification reduction, Max (10 mg, bioactivity .50): 11.7% | Calcification reduction, Min (10 mg, bioactivity .50): 7.7% | Calcification reduction, M (10 mg, bioactivity .60): 11.8% | Calcification reduction, Max (10 mg, bioactivity .60): 14.3% | Calcification reduction, Min (10 mg, bioactivity .60): 9.2% | Calcification reduction, M (10 mg, bioactivity .70): 14.33% | Calcification reduction, Max (10 mg, bioactivity .70): 17.2% | Calcification reduction, Min (10 mg, bioactivity .70): 10.2% | Calcification reduction, M (10 mg, bioactivity .80): 20.03% | Calcification reduction, Max (10 mg, bioactivity .80): 24.6% | Calcification reduction, Min (10 mg, bioactivity .80): 15.9% | Calcification reduction, M (10 mg, bioactivity .90): 25.04% | Calcification reduction, Max (10 mg, bioactivity .90): 30.3% | Calcification reduction, Min (10 mg, bioactivity .90): 20.5% | Calcification reduction, M (10 mg, bioactivity .95): 25.56% | Calcification reduction, Max (10 mg, bioactivity .95): 32.5% | Calcification reduction, Min (10 mg, bioactivity .95): 18.5% | Calcification reduction, M (25 mg, bioactivity .20): 6.07% | Calcification reduction, Max (25 mg, bioactivity .20): 7.1% | Calcification reduction, Min (25 mg, bioactivity .20): 4.8% | Calcification reduction, M (25 mg, bioactivity .30): 6.23% | Calcification reduction, Max (25 mg, bioactivity .30): 8.1% | Calcification reduction, Min (25 mg, bioactivity .30): 4.6% | Calcification reduction, M (25 mg, bioactivity .50): 10.89% | Calcification reduction, Max (25 mg, bioactivity .50): 12.5% | Calcification reduction, Min (25 mg, bioactivity .50): 9.5% | Calcification reduction, M (25 mg, bioactivity .60): 13.75% | Calcification reduction, Max (25 mg, bioactivity .60): 15.3% | Calcification reduction, Min (25 mg, bioactivity .60): 10.5% | Calcification reduction, M (25 mg, bioactivity .70): 16.55% | Calcification reduction, Max (25 mg, bioactivity .70): 18.6% | Calcification reduction, Min (25 mg, bioactivity .70): 14.3% | Calcification reduction, M (25 mg, bioactivity .80): 24.94% | Calcification reduction, Max (25 mg, bioactivity .80): 30.3% | Calcification reduction, Min (25 mg, bioactivity .80): 20.2% | Calcification reduction, M (25 mg, bioactivity .90): 30.51% | Calcification reduction, Max (25 mg, bioactivity .90): 35.6% | Calcification reduction, Min (25 mg, bioactivity .90): 23.5% | Calcification reduction, M (25 mg, bioactivity .95): 32.69% | Calcification reduction, Max (25 mg, bioactivity .95): 42.6% | Calcification reduction, Min (25 mg, bioactivity .95): 26.3% | Calcification reduction, M (40 mg, bioactivity .20): 5.19% | Calcification reduction, Max (40 mg, bioactivity .20): 6.9% | Calcification reduction, Min (40 mg, bioactivity .20): 3.6% | Calcification reduction, M (40 mg, bioactivity .30): 7.13% | Calcification reduction, Max (40 mg, bioactivity .30): 8.1% | Calcification reduction, Min (40 mg, bioactivity .30): 5.1% | Calcification reduction, M (40 mg, bioactivity .50): 14.2% | Calcification reduction, Max (40 mg, bioactivity .50): 17.1% | Calcification reduction, Min (40 mg, bioactivity .50): 12% | Calcification reduction, M (40 mg, bioactivity .60): 19.23% | Calcification reduction, Max (40 mg, bioactivity .60): 21.9% | Calcification reduction, M (40 mg, bioactivity .70): 24.7% | Calcification reduction, Max (40 mg, bioactivity .70): 33% | Calcification reduction, Min (40 mg, bioactivity .70): 18.9% | Calcification reduction, M (40 mg, bioactivity .80): 28.54% | Calcification reduction, Max (40 mg, bioactivity .80): 34.6% | Calcification reduction, Min (40 mg, bioactivity .80): 22.4% | Calcification reduction, M (40 mg, bioactivity .90): 40.09% | Calcification reduction, Max (40 mg, bioactivity .90): 44.6% | Calcification reduction, Min (40 mg, bioactivity .90): 33.7% | Calcification reduction, M (40 mg, bioactivity .95): 42.98% | Calcification reduction, Max (40 mg, bioactivity .95): 54.5% | Calcification reduction, Min (40 mg, bioactivity .95): 35.8% | Calcification reduction, M (100 mg, bioactivity .20): 6.1% | Calcification reduction, Max (100 mg, bioactivity .20): 7.5% | Calcification reduction, Min (100 mg, bioactivity .20): 5.2% | Calcification reduction, M (100 mg, bioactivity .30): 7.2% | Calcification reduction, Max (100 mg, bioactivity .30): 8.4% | Calcification reduction, Min (100 mg, bioactivity .30): 6% | Calcification reduction, M (100 mg, bioactivity .50): 16.1% | Calcification reduction, Max (100 mg, bioactivity .50): 18.1% | Calcification reduction, Min (100 mg, bioactivity .50): 14.1% | Calcification reduction, M (100 mg, bioactivity .60): 21.54% | Calcification reduction, Max (100 mg, bioactivity .60): 23.7% | Calcification reduction, Min (100 mg, bioactivity .60): 18.3% | Calcification reduction, M (100 mg, bioactivity .70): 30.71% | Calcification reduction, Max (100 mg, bioactivity .70): 35.6% | Calcification reduction, Min (100 mg, bioactivity .70): 25.8% | Calcification reduction, M (100 mg, bioactivity .80): 37.74% | Calcification reduction, Max (100 mg, bioactivity .80): 44.4% | Calcification reduction, Min (100 mg, bioactivity .80): 31.7% | Calcification reduction, M (100 mg, bioactivity .90): 48.52% | Calcification reduction, Max (100 mg, bioactivity .90): 54.7% | Calcification reduction, Min (100 mg, bioactivity .90): 37.6% | Calcification reduction, M (100 mg, bioactivity .95): 55% | Calcification reduction, Max (100 mg, bioactivity .95): 66.1% | Calcification reduction, Min (100 mg, bioactivity .95): 41.9% | Calcification reduction, M [1]: 19.42% | Calcification reduction, Max [1]: 22.1% | Calcification reduction, Min [1]: 15.4% | Calcification reduction, M [2]: 25.56% | Calcification reduction, Max [2]: 32.5% | Calcification reduction, Min [2]: 18.5% | Calcification reduction, M [3]: 32.69% | Calcification reduction, Max [3]: 42.6% | Calcification reduction, Min [3]: 26.3% | Calcification reduction, M [4]: 42.98% | Calcification reduction, Max [4]: 54.5% | Calcification reduction, Min [4]: 35.8% | Calcification reduction, M [5]: 55% | Calcification reduction, Max [5]: 66.1% | Calcification reduction, Min [5]: 41.9%
